Bridges are numbered along the chain shown (N, C = ends). Where no end group is shown, it is not given here.
Legend:
[1] = in the presence of oxygen; cited from earlier work
basilar artery = experiment: Reversal of endothelin-1-induced cerebral vasoconstriction; suffusion of exposed basilar artery in sCSF, video microscopy; type: in vivo, New Zealand White rabbits
cerebral vasospasm = experiment: ITSNP therapy for alleviation and prevention of cerebral vasospasm after aneurysmal SAH, 16 patients; type: in vivo, human; details: pre-therapy administration
[2] = ET-1 100 nanomolar in sCSF, 1 milliliter per minute, Groups 4, 5, 6, n=38

[N]=O [NO, nitric oxide]
half-life in vivo [1]: measured in seconds

O=[N+]([O-])OCC(CO[N+](=O)[O-])O[N+](=O)[O-] [NTG, nitroglycerine]
change in baseline diameter of the basilar artery, substance alone (basilar artery; rabbit, in vivo): did not produce changes | reversal of ET-1-induced vasoconstriction (basilar artery; rabbit, in vivo): rapid and pronounced vasodilation

Cc1nccn1CC1CCc2c(c3ccccc3n2C)C1=O (stereo not drawn) [ondansetron]
effect on nausea associated with ITSNP therapy (cerebral vasospasm): abolished

Endothelin-1 (CSCSSLMDKECVYFCHLDIIW; disulfide 1-15, 3-11; ends not checked; UniProt P05305 53-73, looked up) [ET-1]
reduction of arterial diameter began, after starting the delivery (basilar artery; [2]): 5 to 8 min | reduction of arterial diameter complete within (basilar artery; [2]): 20 to 30 min | average minimal diameter, % of baseline diameter (basilar artery; ET-1 100 nanomolar suffusion): 50.4% | average minimal diameter of the artery (basilar artery; ET-1 100 nanomolar suffusion, baseline 992 microns): 500 microns | return to baseline diameter after ET-1 when followed by sCSF alone (basilar artery; Group 4, n=15): > 30 min

From patent US6796966B2, “Apparatus, and kits for preventing of alleviating vasoconstriction or vasospasm in a mammal” (priority 1997, dated 2004)
